Measurements taken from ChEMBL document CHEMBL6120977, “Structure-Affinity-Pharmacokinetics Relationships of Novel 18F-Labeled 1,4-Diazepane Derivatives for Orexin 1 Receptor Imaging” (J Med Chem, 2024).

Key:
[1] = Apparent permeability in pig LLC-PK1 cells; assay type: ADME, cell-based, Sus scrofa
[2] = Drug uptake in male ddY mouse hypothalamus at 407 kBq, iv measured for 5 to 10 mins by PET/CT imaging analysis; assay type: ADME, organism-based; details: in vivo, time 5-10 min
[3] = Biodistribution in male ddY mouse stomach administered intravenously and measured per organ at 2 mins postinjection by gamma counter analysis; assay type: ADME, organism-based; details: in vivo, iv
[4] = Biodistribution in male ddY mouse pancreas administered intravenously and measured at 2 mins postinjection by gamma counter analysis; assay type: ADME, organism-based; details: in vivo, iv
[5] = Biodistribution in male ddY mouse lung administered intravenously and measured at 10 mins postinjection by gamma counter analysis; assay type: ADME, organism-based; details: in vivo, iv
[6] = Biodistribution in male ddY mouse intestine administered intravenously and measured at 60 mins postinjection by gamma counter analysis; assay type: ADME, organism-based; details: in vivo, iv, 1 h
[7] = Biodistribution in male ddY mouse intestine administered intravenously and measured at 2 mins postinjection by gamma counter analysis; assay type: ADME, organism-based; details: in vivo, iv
[8] = Biodistribution in male ddY mouse brain administered intravenously and measured at 30 mins postinjection by gamma counter analysis; assay type: ADME, organism-based; details: in vivo, iv, 0.5 h
[9] = Biodistribution in male ddY mouse spleen administered intravenously and measured at 2 mins postinjection by gamma counter analysis; assay type: ADME, organism-based; details: in vivo, iv
[10] = Biodistribution in male ddY mouse heart administered intravenously and measured at 30 mins postinjection by gamma counter analysis; assay type: ADME, organism-based; details: in vivo, iv, 0.5 h
[11] = Biodistribution in male ddY mouse stomach administered intravenously and measured per organ at 10 mins postinjection by gamma counter analysis; assay type: ADME, organism-based; details: in vivo, iv
[12] = Biodistribution in male ddY mouse blood administered intravenously and measured at 2 mins postinjection by gamma counter analysis; assay type: ADME, organism-based; details: in vivo, iv
[13] = Biodistribution in male ddY mouse heart administered intravenously and measured at 2 mins postinjection by gamma counter analysis; assay type: ADME, organism-based; details: in vivo, iv
[14] = Biodistribution in male ddY mouse spleen administered intravenously and measured at 60 mins postinjection by gamma counter analysis; assay type: ADME, organism-based; details: in vivo, iv, 1 h
[15] = Biodistribution in male ddY mouse liver administered intravenously and measured at 10 mins postinjection by gamma counter analysis; assay type: ADME, organism-based; details: in vivo, iv
[16] = Biodistribution in male ddY mouse bone administered intravenously and measured at 2 mins postinjection by gamma counter analysis; assay type: ADME, organism-based, Bone element; details: in vivo, iv
[17] = Biodistribution in male ddY mouse brain administered intravenously and measured at 10 mins postinjection by gamma counter analysis; assay type: ADME, organism-based; details: in vivo, iv
[18] = Biodistribution in male ddY mouse liver administered intravenously and measured at 60 mins postinjection by gamma counter analysis; assay type: ADME, organism-based; details: in vivo, iv, 1 h
[19] = Biodistribution in male ddY mouse pancreas administered intravenously and measured at 30 mins postinjection by gamma counter analysis; assay type: ADME, organism-based; details: in vivo, iv, 0.5 h
[20] = Biodistribution in male ddY mouse pancreas administered intravenously and measured at 10 mins postinjection by gamma counter analysis; assay type: ADME, organism-based; details: in vivo, iv
[21] = Biodistribution in male ddY mouse lung administered intravenously and measured at 2 mins postinjection by gamma counter analysis; assay type: ADME, organism-based; details: in vivo, iv
[22] = Biodistribution in male ddY mouse blood administered intravenously and measured at 30 mins postinjection by gamma counter analysis; assay type: ADME, organism-based; details: in vivo, iv, 0.5 h
[23] = Biodistribution in male ddY mouse bone administered intravenously and measured at 30 mins postinjection by gamma counter analysis; assay type: ADME, organism-based, Bone element; details: in vivo, iv, 0.5 h
[24] = Biodistribution in male ddY mouse kidney administered intravenously and measured at 30 mins postinjection by gamma counter analysis; assay type: ADME, organism-based; details: in vivo, iv, 0.5 h
[25] = Drug uptake in male ddY mouse locus ceruleus at 407 kBq, iv measured for 5 to 10 mins by PET/CT imaging analysis; assay type: ADME, organism-based; details: in vivo, time 5-10 min
[26] = Biodistribution in male ddY mouse blood administered intravenously and measured at 10 mins postinjection by gamma counter analysis; assay type: ADME, organism-based; details: in vivo, iv
[27] = Biodistribution in male ddY mouse intestine administered intravenously and measured at 30 mins postinjection by gamma counter analysis; assay type: ADME, organism-based; details: in vivo, iv, 0.5 h
[28] = Biodistribution in male ddY mouse bone administered intravenously and measured at 60 mins postinjection by gamma counter analysis; assay type: ADME, organism-based, Bone element; details: in vivo, iv, 1 h
[29] = Biodistribution in male ddY mouse heart administered intravenously and measured at 60 mins postinjection by gamma counter analysis; assay type: ADME, organism-based; details: in vivo, iv, 1 h
[30] = Biodistribution in male ddY mouse kidney administered intravenously and measured at 10 mins postinjection by gamma counter analysis; assay type: ADME, organism-based; details: in vivo, iv
[31] = Biodistribution in male ddY mouse stomach administered intravenously and measured per organ at 30 mins postinjection by gamma counter analysis; assay type: ADME, organism-based; details: in vivo, iv, 0.5 h
[32] = Biodistribution in male ddY mouse heart administered intravenously and measured at 10 mins postinjection by gamma counter analysis; assay type: ADME, organism-based; details: in vivo, iv
[33] = Biodistribution in male ddY mouse intestine administered intravenously and measured at 10 mins postinjection by gamma counter analysis; assay type: ADME, organism-based; details: in vivo, iv
[34] = Biodistribution in male ddY mouse lung administered intravenously and measured at 30 mins postinjection by gamma counter analysis; assay type: ADME, organism-based; details: in vivo, iv, 0.5 h
[35] = Biodistribution in male ddY mouse liver administered intravenously and measured at 30 mins postinjection by gamma counter analysis; assay type: ADME, organism-based; details: in vivo, iv, 0.5 h
[36] = Drug uptake in male ddY mouse brain at 41 kBq, iv pretreated with BTF for 10 mins followed by compound administration and measured after 10 mins by gamma counter analysis; assay type: ADME, organism-based; details: in vivo
[37] = Biodistribution in male ddY mouse kidney administered intravenously and measured at 60 mins postinjection by gamma counter analysis; assay type: ADME, organism-based; details: in vivo, iv, 1 h
[38] = Biodistribution in male ddY mouse blood administered intravenously and measured at 60 mins postinjection by gamma counter analysis; assay type: ADME, organism-based; details: in vivo, iv, 1 h
[39] = Drug accumulation in male CD Sprague-Dawley rat cortex assessed as increase in radioactivity at 40.1 kBq/ml incubated for 1 hrs in presence of BTF by autoradiography analysis; assay type: ADME, tissue-based
[40] = Drug accumulation in male CD Sprague-Dawley rat amygdala assessed as increase in radioactivity at 40.1 kBq/ml incubated for 1 hrs in presence of BTF by autoradiography analysis; assay type: ADME, tissue-based
[41] = Biodistribution in male ddY mouse lung administered intravenously and measured at 60 mins postinjection by gamma counter analysis; assay type: ADME, organism-based; details: in vivo, iv, 1 h
[42] = Biodistribution in male ddY mouse brain administered intravenously and measured at 2 mins postinjection by gamma counter analysis; assay type: ADME, organism-based; details: in vivo, iv
[43] = Biodistribution in male ddY mouse spleen administered intravenously and measured at 30 mins postinjection by gamma counter analysis; assay type: ADME, organism-based; details: in vivo, iv, 0.5 h
[44] = Drug accumulation in male CD Sprague-Dawley rat hypothalamus assessed as increase in radioactivity at 40.1 kBq/ml incubated for 1 hrs in presence of BTF by autoradiography analysis; assay type: ADME, tissue-based
[45] = Biodistribution in male ddY mouse liver administered intravenously and measured at 2 mins postinjection by gamma counter analysis; assay type: ADME, organism-based; details: in vivo, iv
[46] = Biodistribution in male ddY mouse kidney administered intravenously and measured at 2 mins postinjection by gamma counter analysis; assay type: ADME, organism-based; details: in vivo, iv
[47] = Biodistribution in male ddY mouse brain administered intravenously and measured at 60 mins postinjection by gamma counter analysis; assay type: ADME, organism-based; details: in vivo, iv, 1 h
[48] = Biodistribution in male ddY mouse stomach administered intravenously and measured per organ at 60 mins postinjection by gamma counter analysis; assay type: ADME, organism-based; details: in vivo, iv, 1 h
[49] = Biodistribution in male ddY mouse bone administered intravenously and measured at 10 mins postinjection by gamma counter analysis; assay type: ADME, organism-based, Bone element; details: in vivo, iv
[50] = Biodistribution in male ddY mouse spleen administered intravenously and measured at 10 mins postinjection by gamma counter analysis; assay type: ADME, organism-based; details: in vivo, iv
[51] = Biodistribution in male ddY mouse pancreas administered intravenously and measured at 60 mins postinjection by gamma counter analysis; assay type: ADME, organism-based; details: in vivo, iv, 1 h

Cc1ccc(-n2nccn2)c(C(=O)N2CCN(c3nc4cc(Cl)ccc4o3)CC[C@H]2C)c1 [SUVOREXANT]
Papp [1]: 34.6 ×10⁻⁶ cm/s

C[C@H]1CN(c2nc3ccccc3s2)CCCN1C(=O)c1cc([18F])ccc1-n1nccn1
Drug uptake [2]: Active
Drug uptake [3]: 1.4 %ID
Drug uptake [4]: 7.16 % ID/g
Drug uptake [5]: 4.13 % ID/g
Drug uptake [6]: 34.5 % ID/g
Drug uptake [7]: 4.74 % ID/g
Drug uptake [8]: 0.17 % ID/g
Drug uptake [9]: 3.26 % ID/g
Drug uptake [10]: 1.51 % ID/g
Drug uptake [11]: 2.16 %ID
Drug uptake [12]: 6.02 % ID/g
Drug uptake [13]: 7.48 % ID/g
Drug uptake [14]: 0.29 % ID/g
Drug uptake [15]: 28.6 % ID/g
Drug uptake [16]: 2.69 % ID/g
Drug uptake [17]: 0.82 % ID/g
Drug uptake [18]: 10.8 % ID/g
Drug uptake [19]: 0.92 % ID/g
Drug uptake [20]: 3.1 % ID/g
Drug uptake [21]: 8.48 % ID/g
Drug uptake [22]: 1.74 % ID/g
Drug uptake [23]: 1.77 % ID/g
Drug uptake [24]: 3.99 % ID/g
Drug uptake [25]: Active
Drug uptake [26]: 3.2 % ID/g
Drug uptake [27]: 28 % ID/g
Drug uptake [28]: 1.87 % ID/g
Drug uptake [29]: 0.54 % ID/g
Drug uptake [30]: 4.99 % ID/g
Drug uptake [31]: 2.39 %ID
Drug uptake [32]: 3.02 % ID/g
Drug uptake [33]: 15.7 % ID/g
Drug uptake [34]: 2.2 % ID/g
Drug uptake [35]: 17 % ID/g
Drug uptake [36]: Not_active
Drug uptake [37]: 1.84 % ID/g
Drug uptake [38]: 0.64 % ID/g
Drug uptake [39]: Not_active
Drug uptake [40]: Not_active
Drug uptake [41]: 1.17 % ID/g
Drug uptake [42]: 2.98 % ID/g
Drug uptake [43]: 0.66 % ID/g
Drug uptake [44]: Not_active
Drug uptake [45]: 16.2 % ID/g
Drug uptake [46]: 9.76 % ID/g
Drug uptake [47]: 0.07 % ID/g
Drug uptake [48]: 1.05 %ID
Drug uptake [49]: 1.4 % ID/g
Drug uptake [50]: 1.87 % ID/g
Drug uptake [51]: 0.61 % ID/g
